Test results published in article PMC12615753, “Glutathione as a taste modulator: molecular mechanisms of interaction with umami and sweet taste receptors” (Food Chemistry: Molecular Sciences, 2025).
Entries after “also recorded” stand apart in the source; their conditions may differ.

Molecular target: T1, hTAS1R1 D192F/rTAS1R3 (UniProt Q7RTX1+Q923K1, D192F)
T1 construct: The cDNA coding region of rTAS1R3 was synthesized with optimized-codon usage for human expression; expressed in transfected cells; host or cells: HEK293T/17
T1 sequence (Q7RTX1 21-841 D192F): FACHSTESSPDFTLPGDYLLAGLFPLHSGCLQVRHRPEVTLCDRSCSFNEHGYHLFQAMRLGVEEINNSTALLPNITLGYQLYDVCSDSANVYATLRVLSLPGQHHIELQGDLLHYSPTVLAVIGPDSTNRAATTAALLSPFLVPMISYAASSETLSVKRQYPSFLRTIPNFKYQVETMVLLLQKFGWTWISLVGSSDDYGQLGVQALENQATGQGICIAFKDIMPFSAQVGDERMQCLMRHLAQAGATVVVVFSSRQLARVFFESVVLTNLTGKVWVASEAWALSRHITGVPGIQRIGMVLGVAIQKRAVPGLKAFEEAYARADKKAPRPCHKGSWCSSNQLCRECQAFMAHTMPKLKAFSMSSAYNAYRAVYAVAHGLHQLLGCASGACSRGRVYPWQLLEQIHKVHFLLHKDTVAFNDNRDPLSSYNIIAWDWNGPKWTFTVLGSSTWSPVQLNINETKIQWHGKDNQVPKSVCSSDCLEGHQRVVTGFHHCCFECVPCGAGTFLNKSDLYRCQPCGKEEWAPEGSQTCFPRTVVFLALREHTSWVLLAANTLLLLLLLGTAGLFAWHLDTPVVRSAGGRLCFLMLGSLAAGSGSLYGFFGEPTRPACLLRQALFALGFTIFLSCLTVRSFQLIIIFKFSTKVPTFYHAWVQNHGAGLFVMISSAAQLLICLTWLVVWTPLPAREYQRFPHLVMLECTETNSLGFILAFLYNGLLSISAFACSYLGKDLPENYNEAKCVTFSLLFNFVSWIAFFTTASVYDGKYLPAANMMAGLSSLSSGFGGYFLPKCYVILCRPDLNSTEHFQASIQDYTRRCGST
T1 sequence (Q923K1 21-858): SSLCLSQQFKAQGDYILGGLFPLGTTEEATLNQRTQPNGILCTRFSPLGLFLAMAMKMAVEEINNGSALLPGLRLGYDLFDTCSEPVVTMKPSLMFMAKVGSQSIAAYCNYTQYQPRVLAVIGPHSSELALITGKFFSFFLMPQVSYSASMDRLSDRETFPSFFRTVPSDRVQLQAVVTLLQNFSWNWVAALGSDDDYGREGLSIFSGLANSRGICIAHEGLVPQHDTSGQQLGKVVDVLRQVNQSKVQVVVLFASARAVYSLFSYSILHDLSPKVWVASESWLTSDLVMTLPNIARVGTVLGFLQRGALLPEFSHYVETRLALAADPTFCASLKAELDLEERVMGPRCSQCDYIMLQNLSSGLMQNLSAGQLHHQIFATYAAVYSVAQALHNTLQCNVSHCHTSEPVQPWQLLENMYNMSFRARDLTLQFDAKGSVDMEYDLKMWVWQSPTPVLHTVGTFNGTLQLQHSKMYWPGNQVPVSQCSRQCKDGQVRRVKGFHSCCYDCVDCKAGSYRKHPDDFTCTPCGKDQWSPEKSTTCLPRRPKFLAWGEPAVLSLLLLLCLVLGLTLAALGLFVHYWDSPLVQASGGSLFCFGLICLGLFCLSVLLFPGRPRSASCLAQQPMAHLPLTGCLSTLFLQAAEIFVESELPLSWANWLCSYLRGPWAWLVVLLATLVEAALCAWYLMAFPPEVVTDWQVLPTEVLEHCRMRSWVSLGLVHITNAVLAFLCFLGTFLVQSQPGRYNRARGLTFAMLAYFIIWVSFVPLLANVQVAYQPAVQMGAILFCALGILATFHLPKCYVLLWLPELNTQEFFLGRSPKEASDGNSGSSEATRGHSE
Test: Calcium assay, hTAS1R1 mutant co-expressed with rTAS1R3
Format: cell-based, human, rat
Settings: for response to the agonist alone, vs WT: D192F
Source text: Chimeric Gα proteins, such as Gα16Gust44, Gα16Gi3 or Gα15i2, are widely used in the functional expression of TAS1R receptors ([Backes et al., 2015]; [Suess et al., 2015]; [Toda et al., 2021], [Toda et al., 2013], [Toda et al., 2018]; [Zhang et al., 2008]). Chimeric Gα15i2 (([Toda et al., 2013]), Supplementary data) was generated by replacing the last five residues of the C-terminal tail of rat Gα15i2 (EINLL) (UniProt number G3V6N8; https://www.uniprot.org/uniprot/) with the counterpart sequence from human GNAI2 (DCGLF) (UniProt number P04899-1) and cloning into the pcDNA3.1/Hygro vector (Invitrogen, Thermo Fisher Scientific, Illkirch, France) between the HindIII and NotI restriction sites, resulting in the plasmid pcDNA3.1-Gα15i2. Chimeric Gα16Gust44 construct have already been reported ([Raliou et al., 2011]). Briefly, Gα16Gust44 was generated by replacing the C-terminal of Gα16 with the C-terminal 44 residues of gustducin. As previously described, hTAS1R1 was amplified from human fungiform papillae cDNA and cloned and inserted into pcDNA3 (Invitrogen), generating pcDNA3-TAS1R1-WT (wild-type) ([Raliou et al., 2011]). […] The cDNA coding region of rTAS1R3 was synthesized with optimized-codon usage for human expression (Genewiz) and was cloned and inserted into the mammalian pcDNA4/myc-HisA (Invitrogen) expression vector between the EcoRI and NotI restriction sites, resulting in the plasmid pcDNA4-rTAS1R3. […] The sequence integrity of all the plasmid constructs was verified via automated DNA sequencing (Genewiz).
The hTAS1R1 mutants were co-expressed with the rTAS1R3 subunit in HEK293 cells. […] As a control, the functionality of the mutated receptors was checked after stimulation with S807 (Fig. S8), which interacts with TAS1R1-TMD ([Zhang et al., 2008]).

CCCC(CCC)NC(=O)c1ccc2c(c1)OCO2 [S807, N-(heptan-4-yl)benzo[d][1,3]dioxole-5-carboxamide, reference compound]
response to the agonist alone, vs WT: increased

N[C@@H](CCC(=O)O)C(=O)O [L-Glu, L-glutamic acid, reference compound]
response to the agonist alone, vs WT: completely suppressed; also recorded: completely abolished

N[C@@H](CCC(=O)N[C@@H](CS)C(=O)NCC(=O)O)C(=O)O [GSH, γ-L-glutamyl-L-cysteinyl-glycine]
EC50: > 30 mM
response to the agonist alone, vs WT: fully abolished; also recorded: completely abolished
